{"source": "patent US8431541B2", "about": "“Alpha-amylase inhibitors: the montbretins and uses thereof” (The University of British Columbia, priority 2007, dated 2013)", "key": {"[1]": {"system": "control and STZ-diabetic rats", "experiment": "Acute starch tolerance test", "type": "in vivo, rat", "method": "Twenty-four animals were obtained at 200-250 g of body weight and randomly divided into control and diabetic groups. Diabetes was induced by a single intravenous tail vein injection of streptozotocin 60 mg/kg in 0.9% normal saline. Control rats received normal saline injections only. Animals were subsequently divided into acarbose untreated and treated. […] Starch was obtained from Fisher Scientific and a 17.5% suspension was made in distilled water. The dose of starch given was […].\nThe animals were fasted overnight. A basal blood sample was collected (50 μl volume) and then at 30, 60, 90 and 120 minutes post drug administration. Starch and starch+acarbose was administered by oral gavage. Blood was centrifuged at 10,000 g×25 minutes and plasma collected for determination of glucose levels using a Beckman Glucose Analyzer II™. There was no difference in body weight among the groups. There was a significant increase in plasma glucose 30 and 60 minutes following starch administration in the diabetic untreated group only.\nThe twenty-four animals from Example 6 were used following a wash out period of one week. Animals were divided into montbretin A untreated and treated. The four treatment groups were: control, n=6, control+montbretin A, n=6, diabetic, n=6 and diabetic+montbretin A, n=6. The procedures used in Example 6 were employed. Montbretin A was dissolved in distilled water at a concentration of 10 mg/ml and given at a volume of 1 ml/kg. The dose of montbretin A given was 10 mg/kg. There was no difference in body weight among the groups. There was a significant increase in plasma glucose levels in the diabetic untreated group at 30 and 60 minutes following starch administration.\nA study was done to determine the effect of various amounts of montbretin A and montbretin extracts on plasma glucose levels in response to a starch challenge in STZ-diabetic rats. Diabetic animals used in the previous Examples were used following a wash out period of one week. The six experimental groups were: diabetic (D, n=3) diabetic+montbretin A (5 mg/kg), (DT5, n=3), diabetic+montbretin A (1 mg/kg), (DT1, n=3), diabetic+montbretin A (0.5 mg/kg), (DT0.5, n=3), diabetic+Crocosmia corm methanol extract (5 mg/kg), (DM, n=3) and diabetic+Crocosmia corm ethanol extract (5 mg/kg), (DE, n=2).\nMontbretin A was dissolved in distilled water at a concentration of 5, 1 or 0.5 mg/ml and given at a volume of 1 ml/kg. The methanol extract contained montbretin A at a concentration of 3.2 mg/ml and ethanol extract at a concentration of 1.6 mg/ml. These extracts were dried and resuspended in distilled water. There was no difference in body weight among the groups. […] Diarrhea occurred in 2 out 3 animals given the methanol extract and in 1 out of 2 animals given the ethanol extract. […]"}, "[2]": {"target": "T1, α-amylase (HPA) (Homo sapiens, UniProt P04746)", "T1 sequence (P04746 16-511)": "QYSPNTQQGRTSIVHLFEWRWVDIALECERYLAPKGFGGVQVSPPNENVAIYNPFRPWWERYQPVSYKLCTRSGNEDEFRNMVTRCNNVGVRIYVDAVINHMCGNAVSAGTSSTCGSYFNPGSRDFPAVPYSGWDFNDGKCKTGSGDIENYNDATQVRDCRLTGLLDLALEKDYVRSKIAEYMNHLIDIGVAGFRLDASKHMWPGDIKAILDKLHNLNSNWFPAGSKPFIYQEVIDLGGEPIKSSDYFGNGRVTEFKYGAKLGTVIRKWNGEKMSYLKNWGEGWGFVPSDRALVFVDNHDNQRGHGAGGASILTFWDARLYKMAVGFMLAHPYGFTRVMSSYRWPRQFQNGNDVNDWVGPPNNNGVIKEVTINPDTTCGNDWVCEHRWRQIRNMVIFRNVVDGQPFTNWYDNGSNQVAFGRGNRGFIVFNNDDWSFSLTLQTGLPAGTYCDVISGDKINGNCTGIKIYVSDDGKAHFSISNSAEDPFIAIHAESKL", "experiment": "Glycosidase specificity: α-amylase", "type": "biochemical", "conditions": "at 0.1 μM Montbretin A; read-out: RA (%), Residual Enzyme Activity"}, "[3]": {"experiment": "Stability in simulated gastric fluid (SGF) by UPLC", "type": "in vitro ADME", "conditions": "SGF pH 1.51, 37° C., 1 hour", "method": "The stability of montbretin A in both simulated intestinal fluid (SIF) and simulated gastric fluid (SGF) were analyzed via ultra performance liquid chromatography (UPLC). The instrument consisted of a Waters® Acquity™ UPLC system equipped with a PDA and a TQ detector in tandem. The 2 μL sample injection volume was passed through a Waters® Acquity™ BEH C18 column (1.7 μm, 2.1×100 mm), with mobile phases A and B consisting of water with 0.1% formic acid and acetonitrile with 0.1% formic acid, respectively. The mobile phases were delivered at a programmed linear gradient at a column temperature of 35° C. Linearity was evaluated using a set of montbretin A calibration standards with concentrations ranging from 10 to 100 μg/mL in water. […]\nTo examine the gastrointestinal fluid activity, 0.5 mg/ml solutions of oleamide (positive control) in SGF or SIF were prepared by diluting a 100 μL aliquot of oleamide (50 mg/mL in 2-propanol) to 10 mL with either SGF or SIF and incubated in a 37° C. water bath for 1 or 3 hours, respectively. At time points of 1 or 3 hours, the sample was removed from the water bath and a 100 μL aliquot of the resulting solution was diluted to 1 mL with de-ionized water in a glass UPLC glass sample vial and analyzed by UPLC for oleamide content. […]"}}}
{"smiles": "CC1O[C@@H](O[C@@H]2CO[C@@H](Oc3c(O)cc(-c4oc5cc(O)cc(O)c5c(=O)c4O[C@@H]4OC(C)[C@H](O)[C@H](O)C4O[C@@H]4OC(COC(=O)/C=C/c5ccc(O)c(O)c5)[C@@H](O)[C@@H](O)C4O[C@@H]4OC(CO)[C@@H](O)[C@@H](O)C4O)cc3O)C(O)[C@@H]2O)C(O)[C@@H](O)[C@H]1O", "note": "(some centres unmarked) [Montbretin A, montbretin A]", "values": [{"measurement": "increase in plasma glucose following starch administration", "setting": "[1]; 5 mg/kg, acute, STZ-diabetic rats", "value": "prevented the increase in plasma glucose"}, {"measurement": "increase in plasma glucose following a starch challenge", "setting": "[1]; 10 mg/kg, oral gavage, acute, control and STZ-diabetic rats", "value": "effective in preventing the increase in plasma glucose"}, {"measurement": "effect on plasma glucose, area under the curve", "setting": "[1]; lower doses (1 mg/kg, 0.5 mg/kg), STZ-diabetic rats", "value": "not particularly significant"}, {"measurement": "remaining activity at 0.1 µM", "setting": "[2]", "value": 11, "unit": "%"}, {"measurement": "degradation or loss in SGF", "setting": "[3]", "value": "~10", "unit": "%"}]}
